Assay results reported in patent publication US20250326725A1, “PI4-Kinase Inhibitors and Methods of Using the Same” (The Board of Trustees of the Leland Stanford Junior …, priority 2019, published 2025).
Where “and” joins values, the source holds several entries; their conditions need not be identical. Identical values can stand only once. Like-named read-outs stand apart in the source and are kept apart here.

Assays:
[1] = Microsomal stability, mouse liver microsomes; format: in vitro ADME
HCV = experiment: Anti-HCV assay (EC50); format: cell-based; conditions: Hepatitis C virus, read-out: HCV EC50
Method: Anti-HCV assay: Anti-HCV assays are performed as described by Cho et al. “Identification of a class of HCV inhibitors directed against the nonstructural protein NS4B.” Sci. Transl. Med. 2011; 2(15):15ra6.

cells (EV71 assay) = experiment: Cell toxicity (CC50) in EV71 assay
[2] = Cell toxicity (CC50) in EV71 assay; conditions: EV71 CC50
[3] = Caco-2 permeability assay; format: in vitro ADME; conditions: human, read-out: Caco2 Papp × 1e−6 cm/s
Method: Compounds of interest were tested in a variety of cell-based assays for antiviral activity.

cells (EV68 assay) = experiment: Cell toxicity (CC50) in EV68 assay
[4] = Cell toxicity (CC50) in EV68 assay; conditions: EV68 CC50
HRV = experiment: Rhinovirus antiviral assay (EC50); format: cell-based; conditions: Human rhinovirus sp.
EV71 = EV71 antiviral assay (EC50); format: cell-based, Enterovirus 71
[5] = Microsomal stability, human liver microsomes; format: in vitro ADME
EV68 = EV68 antiviral assay (EC50); format: cell-based
HeLa S3 cells = experiment: Cell toxicity (CC50) in HRV assay; conditions: human
[6] = Cell toxicity (CC50) in HRV assay; conditions: human, HRV CC50
PI4KIIIbeta = biological target: T1, PI4KIIIbeta (Bos taurus, UniProt O02810); experiment: PI-kinase assay, PI4KIIIbeta (Table 4); format: biochemical, bovine
T1 construct: made in house; host or cells: COS-7 cells, transient transfection, anti-HA immunoprecipitate on protein G Sepharose beads
T1 sequence (O02810 whole entry): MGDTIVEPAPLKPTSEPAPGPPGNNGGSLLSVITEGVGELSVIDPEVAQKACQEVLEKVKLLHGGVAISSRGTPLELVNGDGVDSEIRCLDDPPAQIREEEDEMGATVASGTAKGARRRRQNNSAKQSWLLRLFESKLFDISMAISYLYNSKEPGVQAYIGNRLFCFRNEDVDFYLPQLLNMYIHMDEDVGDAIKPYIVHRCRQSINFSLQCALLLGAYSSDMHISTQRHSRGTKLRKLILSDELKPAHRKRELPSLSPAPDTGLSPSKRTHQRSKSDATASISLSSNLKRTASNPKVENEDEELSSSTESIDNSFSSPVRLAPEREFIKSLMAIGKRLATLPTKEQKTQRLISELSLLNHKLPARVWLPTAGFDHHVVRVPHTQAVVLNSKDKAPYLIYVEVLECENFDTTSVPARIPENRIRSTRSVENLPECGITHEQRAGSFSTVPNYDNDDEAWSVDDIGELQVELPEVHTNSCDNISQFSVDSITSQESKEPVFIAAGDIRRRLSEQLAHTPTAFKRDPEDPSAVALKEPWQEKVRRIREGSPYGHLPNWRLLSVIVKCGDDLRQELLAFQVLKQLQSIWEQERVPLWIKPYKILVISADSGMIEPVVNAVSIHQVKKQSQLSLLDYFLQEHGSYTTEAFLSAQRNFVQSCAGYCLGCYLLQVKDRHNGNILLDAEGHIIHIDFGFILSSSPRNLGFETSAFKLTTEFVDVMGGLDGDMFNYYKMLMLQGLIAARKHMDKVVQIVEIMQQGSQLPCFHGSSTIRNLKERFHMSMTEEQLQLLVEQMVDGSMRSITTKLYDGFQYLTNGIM
Method: (§1) PI-kinase assay: Compounds are tested in C.1.1. PT kinase assays as described by Shokat et al., “A membrane capture assay for lipid kinase activity.” Nat. Protoc. 2007; 2(10):2459-66.
(§2) General methods of materials: In the assays described here, p110α-p85 complex and p110γ were acquired from Millipore. Assays were performed with La-phosphatidylinositol (Avanti) as described in Knight et al. Nat Protoc. 2007; 2 (10):2459-66. Inhibitor series were prepared 10% DMSO as 5× stocks for the assay. Assays of HsVps34 were performed as described in Knight et al, except that the final assay buffer composition used was changed to 20 mM HEPES 7.5, 100 mM NaCl, 3 mM MgCl, 1 mg/mL PI and 44 nM hvps34 was used in the assay. […] COS-7 cells were cultured in 10 cm dishes and transfected at 70% confluence with 10 μg of plasmid DNA (HA-tagged bovine PI4KIIIβ. HA-tagged human PI4KIIIα) using Lipofectamine 2000 and 5 ml Opti-MEM following the manufacturer's instructions. After 5 hours the transfection medium was replaced with 10 ml complete DMEM. 36 hrs post transfection, cells were washed once with 5 ml PBS (pH 7.4) and lysed in 1 ml of lysis buffer (1) on ice. Lysates were collected by scraping and after 15 min they were centrifuged at 13.000 rpm for 10 min. To the lysates was added 200 gi of protein G Sepharose 4 fast flow beads that were prewashed with PBS and lysis buffer and 2 sg of anti-HA antibody. The tubes were then incubated overnight at 4 degrees C. in a tube rotator. The Sepharose beads in the lysate were washed twice with 150 mM NaCl in RIPA buffer, twice with RIPA buffer and once with kinase buffer (50 mM Tris/HCl, pH 7.5, 20 mM MgCl2, 1 mM EFTA, 1 mM PtdIns, 0.4% Triton X-100, 0.5 mg/mL BSA) and finally the beads were resuspended in 200 μL kinase buffer. Kinase reactions were run in a mixture of 45 μL of PI buffer (1 mM P1 in kinase buffer), 10 μL of immunoprecipitated beads, 2 µL of inhibitors (dissolved and diluted in DMSO) or DMSO and 5 μL of [γ-^32P]-ATP (1 mM and 2 μCi/tube). The immunoprecipitates in PI buffer were pre-incubated with the drugs for 20 min prior the initiation of kinase reaction by adding ATP and the reactions were carried out for 30 min in 15 ml polyproplyene tubes. Reactions were terminated by addition of 3 ml of CHCl3:CH3OH:HCl (200:100:0.75) followed by 0.6 ml of 0.61N HCl to induce phase separation. The mixtures were vortexed, centrifuged at 2000 rpm for 2 min and the upper phase was discarded. To the lower phase was added 1.5 ml of CHCl3:CH3OH:0.6N HCl (3:48:47) and the mixture vortexed and centrifuged at 2000 rpm for 2 ruin. The lower phase was then transferred to counting vials and evaporated. Samples were counted in a scintillation beta counter after adding 5 ml of Instafluor (Perkin-Elmer).
(§3) Selected compounds of Tables 1-3 were prepared and tested for inhibition activity in a variety of kinase assays.

PI4KIIIalpha = biological target: T2, PI4KIIIalpha (Homo sapiens, UniProt P42356); experiment: PI-kinase assay, PI4KIIIalpha (Table 4); format: biochemical
T2 construct: made in house; host or cells: COS-7 cells, transient transfection, anti-HA immunoprecipitate on protein G Sepharose beads
T2 sequence (P42356 whole entry): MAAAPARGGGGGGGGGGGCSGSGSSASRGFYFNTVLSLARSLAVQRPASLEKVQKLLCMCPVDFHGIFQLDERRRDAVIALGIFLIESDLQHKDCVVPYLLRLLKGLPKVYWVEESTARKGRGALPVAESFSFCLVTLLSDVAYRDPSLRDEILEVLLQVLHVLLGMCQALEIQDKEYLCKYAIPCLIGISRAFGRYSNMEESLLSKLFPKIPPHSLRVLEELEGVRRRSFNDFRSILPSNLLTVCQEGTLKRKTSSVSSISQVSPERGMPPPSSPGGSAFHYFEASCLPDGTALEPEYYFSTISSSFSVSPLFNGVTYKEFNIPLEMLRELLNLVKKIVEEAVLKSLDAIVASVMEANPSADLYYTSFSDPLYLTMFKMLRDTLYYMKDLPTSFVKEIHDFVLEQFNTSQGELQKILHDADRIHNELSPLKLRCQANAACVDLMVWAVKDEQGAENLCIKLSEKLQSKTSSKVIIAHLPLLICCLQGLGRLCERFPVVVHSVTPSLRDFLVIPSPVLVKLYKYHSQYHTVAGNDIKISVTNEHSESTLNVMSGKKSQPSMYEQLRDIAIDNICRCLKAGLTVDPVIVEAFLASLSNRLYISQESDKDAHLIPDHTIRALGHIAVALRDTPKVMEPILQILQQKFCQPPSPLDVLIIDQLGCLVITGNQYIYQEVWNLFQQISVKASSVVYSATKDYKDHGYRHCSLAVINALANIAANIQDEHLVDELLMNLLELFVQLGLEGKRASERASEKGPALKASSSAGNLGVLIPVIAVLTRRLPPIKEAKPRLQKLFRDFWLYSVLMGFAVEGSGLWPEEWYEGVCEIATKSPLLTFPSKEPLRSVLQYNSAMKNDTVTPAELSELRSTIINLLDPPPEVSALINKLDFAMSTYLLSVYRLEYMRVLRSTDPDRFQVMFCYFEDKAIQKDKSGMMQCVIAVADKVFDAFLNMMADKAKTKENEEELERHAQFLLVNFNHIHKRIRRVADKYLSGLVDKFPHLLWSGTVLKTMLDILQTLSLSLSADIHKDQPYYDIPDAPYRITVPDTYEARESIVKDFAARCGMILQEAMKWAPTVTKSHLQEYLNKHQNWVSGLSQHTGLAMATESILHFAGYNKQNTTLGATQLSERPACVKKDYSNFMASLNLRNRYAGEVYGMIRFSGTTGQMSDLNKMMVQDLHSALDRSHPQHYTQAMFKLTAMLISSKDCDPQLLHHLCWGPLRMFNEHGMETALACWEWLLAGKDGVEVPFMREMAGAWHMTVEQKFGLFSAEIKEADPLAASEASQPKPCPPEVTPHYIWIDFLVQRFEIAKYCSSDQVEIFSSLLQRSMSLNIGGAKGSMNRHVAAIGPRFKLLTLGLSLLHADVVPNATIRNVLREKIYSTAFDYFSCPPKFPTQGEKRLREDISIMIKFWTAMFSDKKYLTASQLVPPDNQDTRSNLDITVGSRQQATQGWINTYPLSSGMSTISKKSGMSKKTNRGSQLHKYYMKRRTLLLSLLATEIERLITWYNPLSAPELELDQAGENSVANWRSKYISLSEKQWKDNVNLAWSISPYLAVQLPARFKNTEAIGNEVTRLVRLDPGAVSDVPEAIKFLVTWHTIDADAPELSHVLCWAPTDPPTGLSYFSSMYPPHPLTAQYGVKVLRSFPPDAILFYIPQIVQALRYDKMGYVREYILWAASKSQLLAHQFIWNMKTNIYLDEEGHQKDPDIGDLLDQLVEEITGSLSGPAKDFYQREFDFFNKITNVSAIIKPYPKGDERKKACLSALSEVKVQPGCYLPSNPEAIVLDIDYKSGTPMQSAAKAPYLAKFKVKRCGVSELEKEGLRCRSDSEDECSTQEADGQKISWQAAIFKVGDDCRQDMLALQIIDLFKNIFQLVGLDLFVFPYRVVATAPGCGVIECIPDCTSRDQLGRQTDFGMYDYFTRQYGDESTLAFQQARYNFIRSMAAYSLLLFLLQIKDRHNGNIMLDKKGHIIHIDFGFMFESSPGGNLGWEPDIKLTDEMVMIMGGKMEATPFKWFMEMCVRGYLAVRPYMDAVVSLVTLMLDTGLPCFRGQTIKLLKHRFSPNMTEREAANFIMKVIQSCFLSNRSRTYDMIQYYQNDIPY
Method: as §1, §2, §3

[7] = read-out: HLM/MLM (t ½ min): MLM
[8] = with ritonavir (concentration not stated), + Ritonavir, read-out: HLM/MLM (t ½ min) + Ritonavir: MLM
[9] = read-out: HLM/MLM (t ½ min): HLM

Compound | half-life [1, 7] [h] | half-life [1, 8] [h] | EC50 (HCV) [nM] | CC50 (cells (EV71 assay)) [nM] | CC50 [2] [nM] | Papp [3] [×10⁻⁶ cm/s] | CC50 (cells (EV68 assay)) [nM] | CC50 [4] [nM] | EC50 (HRV) [nM] | EC50 (EV71; Enterovirus A, EV71) [nM] | HLM/MLM (t ½ min) + Ritonavir: HLM ([5]; + Ritonavir) | half-life [5, 9] [h] | EC50 (EV68) | CC50 (HeLa S3 cells) [nM] | CC50 [6] [nM] | EC50 (EV71) [nM] | IC50 (PI4KIIIbeta) [nM] | IC50 (PI4KIIIalpha) [nM] | half-life ([5]; with ritonavir (concentration not stated), + Ritonavir, read-out: HLM/MLM (t ½ min) + Ritonavir: HLM) [h]
COc1ccc(-c2sc(NC(C)(C)c3cccnc3)nc2C)cc1S(=O)(=O)Nc1c(C)cccc1F [Compound S-39] | 1.12 | 1.38 | 0.2 | 99000 | 99000 | 7.6 | 19000 | 19900 | 0.2 | 0.2 | 159 min | 1.38 | 0.8 nM | 47000 | 47700 |  |  |  | 
COc1ccc(-c2sc(NCC3CCOCC3)nc2C)cc1S(=O)(=O)Nc1ccc(F)cc1Cl [Compound S-77] |  |  |  |  |  |  |  |  | 826 |  |  |  |  |  | 66000 |  |  |  | 
COc1ccc(-c2sc(NC(C)(C)C3CCCCC3)nc2C)cc1S(=O)(=O)Nc1c(C)cccc1F [Compound S-58] |  |  | 22.5 |  | 100000 |  |  | 100000 | 22 | 6.8 |  |  | 13.5 nM and 13 nM |  | 100000 | 6 |  |  | 
COc1ccc(-c2sc(NC(C)(C)c3ccccc3)nc2C)cc1S(=O)(=O)Nc1c(C)cccc1F [Compound S-32] | 0.367 | 2.22 | 0.2 |  |  | 0.04 |  | 100000 |  |  | 159 min | 0.283 | 0.6 nM and 0.3 nM |  |  |  | < 100 | > 10000 | 
COc1ccc(-c2sc(NC(C)(C)C3CCOCC3)nc2C)cc1S(=O)(=O)Nc1c(C)cccc1F [Compound S-1] | 0.133 | 0.833 | 5 |  | 100000 | 4 |  | 18200 | 0.5 | 0.2 |  | 0.1 | 2.4 nM and 2 nM |  | 15000 |  |  |  | 1.13
COc1ccc(-c2sc(N[C@H](C)c3ccccc3)nc2C)cc1S(=O)(=O)Nc1c(C)cccc1F [Compound S-75] |  |  |  |  | 100000 |  |  | 100000 | 22 | 6 |  |  | 13 nM |  | 100000 |  |  |  | 
COc1ccc(-c2sc(NC(C)(C)C3CCOCC3)nc2C)cc1S(=O)(=O)Nc1ccc(F)cc1Cl [Compound S-4] |  |  | 1.3 | 36000 | 36500 |  |  |  | 1.3 |  |  |  |  | 17000 | 17300 |  |  |  | 
COc1ccc(-c2sc(NC(C)(C)c3ccccc3)nc2C)cc1S(=O)(=O)Nc1ccc(O)cc1 [Compound S-38] |  |  | 0.6 |  |  |  |  |  | 0.2 |  |  |  |  |  |  |  |  |  | 
COc1ccc(-c2sc(N[C@@H](C)c3ccccc3)nc2C)cc1S(=O)(=O)Nc1c(C)cccc1F [Compound S-74] |  |  |  |  | 95000 |  |  | 100000 | 0.9 | 0.9 |  |  | 1 nM |  | 95000 |  |  |  | 
COc1ccc(-c2sc(NC(C)(C)C3CCOCC3)nc2C)cc1S(=O)(=O)Nc1cccnc1C [Compound S-3] | 0.967 | 2.65 | 0.5 | 86000 | 86600 | 7.42 | 47000 | 47500 | 0.5 | 0.5 | 159/159 min | 0.967 | 1.3 nM and 1 nM | 70000 | 70500 |  |  |  | 
COc1ccc(-c2sc(NC3(C4CCOCC4)CC3)nc2C)cc1S(=O)(=O)Nc1ccc(Cl)cc1Cl [Compound S-14] |  |  | 14.4 | 37000 | 37200 |  | 39000 | 39400 | 14 | 10.4 |  |  | 33300 nM and 33000 nM | 36000 | 36400 | 10 |  |  | 
COc1ccc(-c2sc(NC(C)(C)C3CCOCC3)nc2C)cc1S(=O)(=O)Nc1cncnc1C [Compound S-23] |  |  | 138 |  | 100000 |  |  | 66100 |  | 49 |  |  | 796 nM |  | 100000 |  |  |  | 
COc1ccc(-c2oc(NC(C)(C)c3ccccc3)nc2C)cc1S(=O)(=O)Nc1c(C)cccc1F [Compound S-65] |  |  | 1.8 |  | 31300 |  |  | 1700 |  | 2.7 |  |  | 2.4 nM |  | 46300 |  |  |  | 
COc1ccc(-c2sc(NC(C)(C)c3ccccc3)nc2C)cc1S(=O)(=O)NC1CCNCC1 [Compound S-41] |  |  | 9.9 |  | 776 |  |  | 2090 |  | 0.9 |  |  | 58.5 nM |  | 1900 |  |  |  | 
COc1ccc(-c2sc(NC3(C4CCOCC4)CC3)nc2C)cc1S(=O)(=O)Nc1cccnc1C [Compound S-16] |  |  | 683 |  | 21200 |  |  | 39200 |  | 568 |  |  | 2100 nM |  | 38300 |  |  |  | 
COc1ccc(-c2sc(NC(C)(C)C3CCN(C(C)=O)CC3)nc2C)cc1S(=O)(=O)Nc1cccnc1C [Compound S-21] |  |  | 2.4 |  | 91300 |  |  | 94800 |  | 3.1 |  |  | 10.7 nM |  | 87600 |  |  |  | 
COc1ccc(-c2sc(NC(C)(C)C3CCNCC3)nc2C)cc1S(=O)(=O)Nc1cccnc1C [Compound S-53] |  |  | 12400 |  | 47900 |  |  | 100000 |  | 3560 |  |  | 12300 nM |  | 100000 |  |  |  | 
COc1ccc(-c2sc(NC(C)(C)C3CCOCC3)nc2C)cc1S(=O)(=O)Nc1ncc[nH]1 [Compound S-24] |  |  | 3.7 |  | 73000 |  |  | 13400 |  | 4.6 |  |  | 11.1 nM |  | 9620 |  |  |  | 
COc1ccc(-c2sc(NC(C)(C)C3CCOCC3)nc2C)cc1S(=O)(=O)NC1CCS(=O)(=O)CC1 [Compound S-11] |  |  | 57.1 |  | 26000 |  |  | 43300 |  | 7.2 |  |  | 3830 nM |  | 40700 |  |  |  | 
COc1ccc(-c2sc(NC(C)(C)c3ccccc3)nc2C)cc1S(=O)(=O)NC1CCN(S(C)(=O)=O)CC1 [Compound S-57] |  |  | 0.9 |  | 96100 |  |  | 100000 | 0.9 | 0.9 |  |  | 1 nM | 95000 | 95200 |  |  |  | 
